Experimental data reported in PubChem BioAssay AID330 (DTP/NCI, 2004).
Where “and” joins values, the source holds several entries; their conditions need not be identical. Equal values may be shown once. Inconclusive results and toxic doses are left out. Peptide text beside a SMILES is read from it.

System: P388 leukemia ip, CD2F1 mice, survival T/C
Assay: NCI In Vivo Anticancer Drug Screen. Data for tumor model P388 Leukemia (intraperitoneal) in CD2F1 (CDF1) mice
Conditions: endpoint: median survival time, higher = longer survival
Outline: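 Mice carrying the transplanted tumor received test compound or vehicle. Survival was recorded in each group, and the value is the treated-group measurement divided by that of the vehicle-treated control group.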

[1] = dose: 50.0 mg/kg/injection, schedule: Q01DX005 (ip), vehicle: saline with Tween-80
[2] = dose: 100.0 mg/kg/injection, schedule: Q01DX005 (ip), vehicle: saline with Tween-80
[3] = dose: 200.0 mg/kg/injection, schedule: Q01DX005 (ip), vehicle: saline with Tween-80
[4] = dose: 100.0 mg/kg/injection, schedule: Q04DX002 (ip), vehicle: saline with Tween-80
[5] = dose: 200.0 mg/kg/injection, schedule: Q04DX002 (ip), vehicle: saline with Tween-80
[6] = dose: 50.0 mg/kg/injection, schedule: Q01DX009 (ip), vehicle: saline
[7] = dose: 100.0 mg/kg/injection, schedule: Q01DX009 (ip), vehicle: saline
[8] = dose: 200.0 mg/kg/injection, schedule: Q01DX009 (ip), vehicle: saline

Structure (SMILES): COc1ccc(C23OCCN2C(=O)c2ccccc23)cc1 (configuration not stated)
- T/C (dose: 60.0 mg/kg/injection, schedule: Q01DX005 (ip), vehicle: saline + Tween-80 + alcohol): 99 % of control
- T/C (dose: 120.0 mg/kg/injection, schedule: Q01DX005 (ip), vehicle: saline + Tween-80 + alcohol): 100 % of control
- T/C (dose: 240.0 mg/kg/injection, schedule: Q01DX005 (ip), vehicle: saline + Tween-80 + alcohol): 101 % of control

Structure (SMILES): O=C(O)C1OC1C(=O)O (configuration not stated)
- T/C (dose: 75.0 mg/kg/injection, schedule: Q04DX003 (ip), vehicle: saline): 100 % of control
- T/C (dose: 150.0 mg/kg/injection, schedule: Q04DX003 (ip), vehicle: saline): 100 % of control
- T/C (dose: 300.0 mg/kg/injection, schedule: Q04DX003 (ip), vehicle: saline): 100 % of control

Structure (SMILES): c1ccc(C23OOC(c4ccccc4)(c4ccccc42)c2ccccc23)cc1
- T/C (dose: 5.0 mg/kg/injection, schedule: Q01DX001 (ip), vehicle: Klucel (hydroxypropylcellulose) (HPC)): 96 % of control
- T/C (dose: 10.0 mg/kg/injection, schedule: Q01DX001 (ip), vehicle: Klucel (hydroxypropylcellulose) (HPC)): 96 % of control
- T/C (dose: 20.0 mg/kg/injection, schedule: Q01DX001 (ip), vehicle: Klucel (hydroxypropylcellulose) (HPC)): 89 % of control

Structure (SMILES): COP(=O)(CCC1OCCO1)OC
- T/C [1]: 104 % of control
- T/C [2]: 104 % of control
- T/C [3]: 99 % of control

Structure (SMILES): COCCN(CCOC)C1C2=C(CCCC2)OS(=O)(=O)C1c1ccccc1 (configuration not stated)
- T/C (dose: 60.0 mg/kg/injection, schedule: Q01DX005 (ip), vehicle: Klucel (hydroxypropylcellulose) (HPC)): 101 % of control
- T/C (dose: 120.0 mg/kg/injection, schedule: Q01DX005 (ip), vehicle: Klucel (hydroxypropylcellulose) (HPC)): 105 % of control
- T/C (dose: 240.0 mg/kg/injection, schedule: Q01DX005 (ip), vehicle: Klucel (hydroxypropylcellulose) (HPC)): 104 % of control

Structure (SMILES): Cc1ccc(S(=O)(=O)S(=O)(=O)c2ccc(C)cc2)cc1
- T/C [4]: 96 % of control
- T/C [5]: 99 % of control
- T/C (dose: 400.0 mg/kg/injection, schedule: Q04DX002 (ip), vehicle: saline with Tween-80): 104 % of control

Structure (SMILES): CCCCOP(=O)(O)OCCCC.[U]
- T/C (dose: 6.25 mg/kg/injection, schedule: Q01DX009 (ip), vehicle: saline with Tween-80): 97 % of control

Structure (SMILES): COc1cc(N=Nc2c(Cl)cc([N+](=O)[O-])cc2Cl)c([OH+]C)cc1[N+]#N.COc1cc(N=Nc2c(Cl)cc([N+](=O)[O-])cc2Cl)c([OH+]C)cc1[N+]#N.[Cl][Zn][Cl]
- T/C [6]: 111 % of control and 115 % of control
- T/C [7]: 120 % of control and 122 % of control
- T/C [8]: 119 % of control and 124 % of control
- T/C (dose: 400.0 mg/kg/injection, schedule: Q01DX009 (ip), vehicle: saline): 119 % of control

Structure (SMILES): [Cl][Co][Cl].c1ccc2[nH]cnc2c1.c1ccc2[nH]cnc2c1
- T/C (dose: 50.0 mg/kg/injection, schedule: Q01DX005 (ip), vehicle: Klucel (hydroxypropylcellulose) (HPC)): 111 % of control
- T/C (dose: 100.0 mg/kg/injection, schedule: Q01DX005 (ip), vehicle: Klucel (hydroxypropylcellulose) (HPC)): 111 % of control

Structure (SMILES): CCCCCCCCCCCCCCCC[N+](C)(C)CC[S+](C)C
- T/C (dose: 12.5 mg/kg/injection, schedule: Q01DX009 (ip), vehicle: water): 96 % of control
- T/C (dose: 25.0 mg/kg/injection, schedule: Q01DX009 (ip), vehicle: water): 99 % of control
- T/C (dose: 50.0 mg/kg/injection, schedule: Q01DX009 (ip), vehicle: water): 100 % of control

Structure (SMILES): Cc1cc2c(C(C)C)c(O)c(O)c(C=NCCO)c2c(O)c1-c1c(C)cc2c(C(C)C)c(O)c(O)c(C=NCCO)c2c1O
- T/C [1]: 113 % of control
- T/C (dose: 75.0 mg/kg/injection, schedule: Q01DX005 (ip), vehicle: saline with Tween-80): 120 % of control
- T/C [2]: 120 % of control

Structure (SMILES): CCC1(O)CC(OC2CC(N(C)C)C(OC3CC(O)C(OC4CCC(=O)C(C)O4)C(C)O3)C(C)O2)c2c(cc3c(c2O)C(=O)c2c(O)ccc(O)c2C3=O)C1C(=O)OC (configuration not stated)
- T/C (dose: 0.78 mg/kg/injection, schedule: Q01DX009 (ip), vehicle: saline with Tween-80): 178 % of control
- T/C (dose: 1:4.0 dilution, schedule: Q01DX009 (ip), vehicle: saline): 241 % of control
- T/C (dose: 1:8.0 dilution, schedule: Q01DX009 (ip), vehicle: saline): 190 % of control

Structure (SMILES): Nc1ncnc2nc(/N=N/SCCC(=O)O)[nH]c12
- T/C [1]: 108 % of control
- T/C [2]: 103 % of control
- T/C [3]: 100 % of control

Structure (SMILES): Cc1ccc(C2=Nc3ccccc3SC(c3cccc([N+](=O)[O-])c3)C2)cc1 (configuration not stated)
- T/C (dose: 3.12 mg/kg/injection, schedule: Q01DX009 (ip), vehicle: saline): 90 % of control
- T/C (dose: 6.25 mg/kg/injection, schedule: Q01DX009 (ip), vehicle: saline): 97 % of control
- T/C (dose: 12.5 mg/kg/injection, schedule: Q01DX009 (ip), vehicle: saline): 88 % of control
- T/C [6]: 86 % of control

Structure (SMILES): O=C1NC2(c3ccccc3)NC(=O)NC2(c2ccccc2)N1 (configuration not stated)
- T/C [6]: 99 % of control
- T/C [7]: 93 % of control
- T/C (dose: 100.0 mg/kg/injection, schedule: Q04DX003 (ip), vehicle: saline with Tween-80): 100 % of control
- T/C (dose: 100.0 mg/kg/injection, schedule: Q04DX003 (ip), vehicle: saline): 94 % of control
- T/C [8]: 96 % of control
- T/C (dose: 200.0 mg/kg/injection, schedule: Q04DX003 (ip), vehicle: saline with Tween-80): 100 % of control
- T/C (dose: 200.0 mg/kg/injection, schedule: Q04DX003 (ip), vehicle: saline): 94 % of control
- T/C (dose: 400.0 mg/kg/injection, schedule: Q04DX003 (ip), vehicle: saline with Tween-80): 86 % of control
- T/C (dose: 400.0 mg/kg/injection, schedule: Q04DX003 (ip), vehicle: saline): 92 % of control

Structure (SMILES): CN(C)c1ccc(/C=C/c2c(F)cnc3ccccc23)cc1
- T/C (dose: 12.5 mg/kg/injection, schedule: Q01DX009 (ip), vehicle: Klucel (hydroxypropylcellulose) (HPC)): 114 % of control
- T/C (dose: 25.0 mg/kg/injection, schedule: Q01DX009 (ip), vehicle: Klucel (hydroxypropylcellulose) (HPC)): 101 % of control
- T/C (dose: 50.0 mg/kg/injection, schedule: Q01DX009 (ip), vehicle: Klucel (hydroxypropylcellulose) (HPC)): 104 % of control

Structure (SMILES): O=C(NC(=S)c1ccco1)NS(=O)(=O)c1ccc(Cl)cc1
- T/C (dose: 25.0 mg/kg/injection, schedule: Q01DX001 (ip), vehicle: saline with Tween-80): 100 % of control
- T/C (dose: 50.0 mg/kg/injection, schedule: Q01DX001 (ip), vehicle: saline with Tween-80): 95 % of control
- T/C (dose: 100.0 mg/kg/injection, schedule: Q01DX001 (ip), vehicle: saline with Tween-80): 96 % of control

Structure (SMILES): CC(NC(=O)C(Cc1ccccc1)NC(=O)C(N)CCCN=C(N)N)C(=O)O (stereo not drawn) (H-Arg-Phe-Ala-OH; configuration not given here)
- T/C (dose: 50.0 mg/kg/injection, schedule: Q01DX005 (ip), vehicle: saline): 102 % of control
- T/C (dose: 100.0 mg/kg/injection, schedule: Q01DX005 (ip), vehicle: saline): 101 % of control
- T/C (dose: 200.0 mg/kg/injection, schedule: Q01DX005 (ip), vehicle: saline): 101 % of control

Structure (SMILES): C/C(=N\NC(=S)N1CCC(N2CCCCC2)CC1)c1ccccn1
- T/C (dose: 6.25 mg/kg/injection, schedule: Q01DX005 (ip), vehicle: saline with Tween-80): 112 % of control
- T/C (dose: 12.5 mg/kg/injection, schedule: Q01DX005 (ip), vehicle: saline with Tween-80): 113 % of control

Structure (SMILES): CC1(C)N=NC2(Br)C3CCC(C3)C12 (configuration not stated)
- T/C (dose: 100.0 mg/kg/injection, schedule: Q04DX002 (ip), vehicle: Klucel (hydroxypropylcellulose) (HPC)): 102 % of control
- T/C (dose: 200.0 mg/kg/injection, schedule: Q04DX002 (ip), vehicle: Klucel (hydroxypropylcellulose) (HPC)): 97 % of control
- T/C (dose: 400.0 mg/kg/injection, schedule: Q04DX002 (ip), vehicle: Klucel (hydroxypropylcellulose) (HPC)): 100 % of control

Structure (SMILES): Oc1ccc2[nH]c3cc4ccncc4cc3c2c1
- T/C (dose: 25.0 mg/kg/injection, schedule: Q04DX002 (ip), vehicle: saline with Tween-80): 106 % of control
- T/C (dose: 50.0 mg/kg/injection, schedule: Q04DX002 (ip), vehicle: saline with Tween-80): 97 % of control
- T/C [4]: 122 % of control
- T/C [5]: 115 % of control

Structure (SMILES): COc1ccc2c(NCCCCCCCCNc3c4ccc(OC)cc4nc4c(OC)cccc34)c3cccc(OC)c3nc2c1
- T/C (dose: 0.63 mg/kg/injection, schedule: Q01DX009 (ip), vehicle: other): 166 % of control
- T/C (dose: 2.5 mg/kg/injection, schedule: Q01DX009 (ip), vehicle: other): 120 % of control
- T/C (dose: 5.0 mg/kg/injection, schedule: Q01DX009 (ip), vehicle: other): 86 % of control

Structure (SMILES): O=C1CN(c2cccc(Cl)c2)C(=O)CN1/N=C/c1ccco1
- T/C [1]: 109 % of control
- T/C [2]: 107 % of control
- T/C [3]: 98 % of control

Structure (SMILES): CSc1nc(SC)c2c(C)cn(C3OC(C)C(O)C(O)C3O)c2n1 (configuration not stated)
- T/C [2]: 94 % of control
- T/C [3]: 93 % of control
- T/C (dose: 400.0 mg/kg/injection, schedule: Q01DX005 (ip), vehicle: saline with Tween-80): 97 % of control
